# Laboratory results published in the supplement of paper PMC10307832.
# Assays:
# Test in all cases: relative viability (nuclei count vs DMSO), 5 days (fraction); higher = more cells survive
# [1] = compound: Cn1cc(-c2cnn3c(N)c(Br)c([C@@H]4CCCNC4)nc23)cn1 + CCNC(=O)c1noc(-c2cc(C(C)C)c(O)cc2O)c1-c1ccc(CN2CCOCC2)cc1 [Luminespib] (partner 0.01 µM)
# How it was run: (§1)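 Medians of duplicate plates are given as relative viability. That measure is the nuclei count in treated wells divided by the count in vehicle wells. Counts were taken on 4× images of lung cancer cell lines in 1536-well plates, 5 days after pin-tool dosing the day after seeding with one drug alone or a fixed anchor-drug dose plus five library-drug doses (not always all listed) in √10 steps.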
# [2] = compound: Cn1cc(-c2cnn3c(N)c(Br)c([C@@H]4CCCNC4)nc23)cn1 + Cc1cc(Nc2cc(N3CCN(C)CC3)nc(Sc3ccc(NC(=O)C4CC4)cc3)n2)n[nH]1 [Tozasertib] (partner 0.1 µM)
# How it was run: as §1
# [3] = compound: Cn1cc(-c2cnn3c(N)c(Br)c([C@@H]4CCCNC4)nc23)cn1 + Cc1nc(NC(=O)N2CCC[C@H]2C(N)=O)sc1-c1ccnc(C(C)(C)C(F)(F)F)c1 [Alpelisib] (partner 2 µM)
# How it was run: as §1
# [4] = compound: Cn1cc(-c2cnn3c(N)c(Br)c([C@@H]4CCCNC4)nc23)cn1 + Cc1nc(Nc2ncc(C(=O)Nc3c(C)cccc3Cl)s2)cc(N2CCN(CCO)CC2)n1 [Dasatinib] (partner 0.075 µM)
# How it was run: as §1
Cell Line,relative viability ([1]; first compound 0.05 µM),relative viability ([1]; first compound 0.1581 µM),relative viability ([1]; first compound 0.5 µM),relative viability ([1]; first compound 1.581 µM),relative viability ([1]; first compound 5 µM),relative viability ([2]; first compound 0.05 µM),relative viability ([2]; first compound 0.1581 µM),relative viability ([2]; first compound 0.5 µM),relative viability ([2]; first compound 1.581 µM),relative viability ([2]; first compound 5 µM),relative viability ([3]; first compound 0.05 µM),relative viability ([3]; first compound 0.1581 µM),relative viability ([3]; first compound 0.5 µM),relative viability ([3]; first compound 1.581 µM),relative viability ([3]; first compound 5 µM),relative viability ([4]; first compound 0.05 µM),relative viability ([4]; first compound 0.1581 µM),relative viability ([4]; first compound 0.5 µM),relative viability ([4]; first compound 1.581 µM),relative viability ([4]; first compound 5 µM)
201T,1.05,1.17,1.06,0.988,0.83,0.932,0.992,0.898,0.776,0.758,1.04,1.02,1.05,0.98,0.909,0.614,0.568,0.651,0.587,0.439
A-427,1.36,0.923,0.889,0.571,0.403,0.185,0.246,0.206,0.192,0.154,1.11,1.05,1.15,0.977,1.01,0.863,0.816,0.633,0.583,0.358
ABC-1,0.439,0.338,0.484,0.361,0.265,0.159,0.156,0.219,0.127,0.136,1.14,1.03,0.814,0.917,0.401,0.479,0.561,0.497,0.484,0.301
BEN,0.305,0.463,0.311,0.332,0.337,0.606,0.494,0.467,0.714,0.489,0.891,1.15,1.05,0.869,0.778,0.316,0.286,0.347,0.327,0.265
CAL-12T,0.517,0.173,0.252,0.289,0.204,0.38,0.326,0.255,0.174,0.113,1.27,1.29,0.937,0.716,0.228,0.467,0.427,0.26,0.299,0.174
COR-L23,0.775,0.745,0.366,0.24,0.119,0.201,0.158,0.211,0.163,0.102,0.768,1.09,0.981,0.589,0.306,0.495,0.451,0.441,0.343,0.2
COR-L 105,0.712,0.754,0.696,0.581,0.484,0.31,0.4,0.293,0.312,0.321,0.962,1,0.978,0.734,0.572,0.318,0.336,0.341,0.29,0.309
Calu-6,–,–,–,–,–,–,–,–,–,–,0.98,0.82,0.883,0.379,0.182,–,–,–,–,–
ChaGo-K-1,0.574,0.537,0.612,0.509,0.452,0.222,0.22,0.227,0.224,0.225,–,–,–,–,–,0.565,0.564,0.606,0.478,0.353
EKVX,0.939,0.958,0.797,0.845,0.667,0.423,0.449,0.448,0.462,0.344,0.908,1.05,0.91,0.694,0.753,0.376,0.549,0.54,0.496,0.578
EMC-BAC-2,1.25,1.37,1.12,0.879,1.08,0.277,0.292,0.251,0.252,0.218,0.778,0.885,0.66,0.708,0.81,0.315,0.328,0.333,0.342,0.25
EPLC-272H,0.63,0.464,0.314,0.194,0.205,0.252,0.249,0.25,0.247,0.226,0.93,0.902,1.01,0.956,0.824,0.34,0.339,0.333,0.286,0.162
H3255,0.882,0.914,1.07,0.938,0.473,0.614,0.569,0.727,0.224,0.447,0.776,0.722,0.684,0.626,0.494,0.313,0.379,0.39,0.446,0.267
HARA,0.752,0.706,0.631,0.376,0.16,0.115,0.616,0.0879,0.0826,0.0524,0.875,0.701,0.792,0.806,0.619,0.37,0.316,0.332,0.252,0.157
HCC-15,0.636,0.419,0.396,0.198,0.382,0.401,0.392,0.386,0.256,0.212,0.981,1.01,0.863,0.782,0.901,0.706,0.633,0.511,0.464,0.483
HCC-44,–,0.995,1.29,0.557,0.771,–,0.875,1.12,0.637,0.618,0.876,0.899,0.759,0.747,0.786,–,–,–,–,–
HCC-78,–,–,–,–,–,–,0.456,0.404,0.407,0.279,0.365,0.334,0.372,0.354,0.289,–,0.384,0.388,0.398,0.295
HCC-366,–,–,–,–,–,0.144,0.703,0.169,0.0808,0.0856,0.439,0.539,0.493,0.368,0.156,0.644,0.562,0.628,0.467,0.22
HCC-827,0.551,0.843,0.485,0.674,0.332,0.426,0.392,0.439,0.516,0.394,0.992,1.04,1.03,1.06,1.06,0.32,0.392,0.276,0.295,0.193

Cell Line,relative viability ([1]; first compound 0.05 µM),relative viability ([1]; first compound 0.1581 µM),relative viability ([1]; first compound 0.5 µM),relative viability ([1]; first compound 1.581 µM),relative viability ([1]; first compound 5 µM),relative viability ([2]; first compound 0.05 µM),relative viability ([2]; first compound 0.1581 µM),relative viability ([2]; first compound 0.5 µM),relative viability ([2]; first compound 1.581 µM),relative viability ([2]; first compound 5 µM),relative viability ([3]; first compound 0.05 µM),relative viability ([3]; first compound 0.1581 µM),relative viability ([3]; first compound 0.5 µM),relative viability ([3]; first compound 1.581 µM),relative viability ([3]; first compound 5 µM),relative viability ([4]; first compound 0.05 µM),relative viability ([4]; first compound 0.1581 µM),relative viability ([4]; first compound 0.5 µM),relative viability ([4]; first compound 1.581 µM),relative viability ([4]; first compound 5 µM)
HOP-62,0.872,0.915,0.933,0.829,0.739,0.334,0.348,0.335,0.252,0.249,1.1,0.815,0.997,0.649,1.19,0.66,0.702,0.568,0.589,0.316
IA-LM,–,–,–,–,–,–,–,–,–,–,0.757,1.05,0.574,0.591,0.589,–,–,–,–,–
LC-2-ad,1.01,1.11,1.26,1.03,1.08,0.39,0.382,0.442,0.464,0.355,0.873,1.04,0.837,0.917,0.838,0.486,0.544,0.504,0.327,0.458
LCLC-97TM1,0.874,0.844,0.743,0.654,0.777,0.202,0.286,0.188,0.269,0.194,0.188,0.299,0.23,0.228,0.189,0.838,0.96,0.833,0.82,0.853
LCLC-103H,1.05,1.02,0.895,0.699,0.816,0.543,0.57,0.469,0.364,0.313,0.957,0.962,0.867,1.05,0.847,0.511,0.449,0.412,0.425,0.289
LK-2,0.213,0.206,0.182,–,0.169,0.196,0.17,0.162,–,0.161,1.07,0.945,1.11,0.618,0.595,0.228,0.296,0.26,–,0.228
LOU-NH91,0.321,0.368,0.285,0.667,0.307,0.585,0.585,0.609,0.683,0.497,0.721,0.664,0.695,0.658,0.561,0.561,0.506,0.514,0.519,0.48
LU99A,0.31,0.202,0.248,0.162,0.223,0.271,0.243,0.258,0.243,0.193,0.534,0.541,0.492,0.491,0.388,0.397,0.51,0.485,0.405,0.244
LXF-289,0.729,0.803,0.645,0.648,0.55,0.209,0.219,0.189,0.168,0.162,1.08,1.14,1.01,1.01,1.06,0.216,0.209,0.181,0.221,0.209
NCI-H23,0.22,0.205,0.187,0.215,0.201,0.247,0.878,0.399,0.311,0.179,0.741,0.717,0.613,0.667,0.227,0.851,0.999,0.687,0.585,0.18
NCI-H322M,0.71,0.33,0.426,0.376,0.279,0.468,0.315,0.406,0.359,0.294,0.765,0.799,0.863,0.756,0.678,0.268,0.279,0.268,0.231,0.245
NCI-H522,1.23,1.26,1.17,1,0.87,0.575,0.638,0.6,0.577,0.543,–,–,–,–,–,0.785,0.849,0.551,0.828,0.831
NCI-H1563,0.62,0.578,0.51,0.55,0.37,–,–,–,–,–,0.827,0.835,0.935,0.8,0.762,0.418,0.451,0.503,0.436,0.412
NCI-H1648,–,–,–,–,–,0.395,0.436,–,0.377,0.381,–,–,–,–,–,–,–,–,–,–
NCI-H1650,–,0.146,0.241,0.194,0.186,–,0.408,0.33,0.3,0.261,–,–,–,–,–,–,0.296,0.257,0.256,0.178
NCI-H1703,–,–,–,–,–,–,–,–,–,–,0.374,0.318,0.259,0.161,0.139,–,–,–,–,–
NCI-H1792,0.488,0.616,0.439,0.79,0.317,–,–,–,–,–,0.883,0.887,0.411,0.408,0.488,–,0.852,0.624,0.933,0.425
NCI-H2342,0.764,0.88,0.773,0.708,0.615,0.547,0.522,0.531,0.52,0.408,–,–,–,–,–,0.31,0.3,0.345,0.336,0.28
SW 900,0.184,0.176,0.188,0.189,0.165,0.59,0.66,0.421,0.458,0.351,–,–,–,–,–,0.496,0.585,0.671,0.448,0.197
